Measured values: US20110070597A1, “Thin-Film Passive Samplers for Detection of Hydrophobic Organic Contaminants and Estrogenicity in Various Environments” (UNIVERSITY OF CONNECTICUT, priority 2009, published 2011)

Format: physicochemical
Text: The polymer coated glass samplers (POG) and the organic rapid equilibrating (ORE) samplers, 10 and 20, both consisting of a thin film (on the order of ˜1-2 μm) of EVA, were calibrated by experimental determination of EVA-Water partition coefficients and sampling rates. The ORE is comprised of a 1.4 μm EVA coating on a 5.1×7.6 cm titanium plate, while the POG utilizes a thin-film of EVA on a glass fiber filter.
A closed system experiment was used to calibrate the POG and ORE devices. Sampling rates and equilibration times were determined for fourteen PBDE congeners. EVA-Water partitioning coefficients (KEVA-W) were experimentally determined for 5 BDE congeners. A Log KEVA-W−Log KOW (Octanol-Water partitioning coefficient) plot was constructed and used to define Log KEVA-W partitioning coefficients for the 14 BDE congeners examined. Values ranged from 6.39 to 10.6. The experimental design was successful in parameterizing the desired constants. In sum, both samplers were successfully calibrated.
A dichloromethane rinsed 20 gallon fish tank was employed for the tank deployment experimental. Three POGs and three OREs were suspended from a stainless steel frame proximate the top of the tank.
Once dry, the tank was filled with artificial seawater comprising sodium chloride, sodium bicarbonate, magnesium sulfate, and high purity Milli-Q water. A handheld multiparameter instrument (YSI-556) was used to confirm salinity (31 parts per thousand), dissolved oxygen (0.19 mM), and temperature (20° C.) prior to starting the experiment. The tank was fit with a plexiglass lid sealed with polytetrafluoroethylene (PTFE; i.e., Teflon®) and duct tape.
The tank was spiked with 0.2 mL of the PBDE Predominant Congener Mixture in n-nonane from Cambridge Isotope laboratories and allowed to equilibrate for 48 hours. Samplers were removed from refrigeration and allowed to equilibrate to room temperature. 400 mL of water was taken to establish the initial concentration. Seven sets of three samplers were added to the tank. The tank was secured with a lid, PTFE and duct tape, as described above. Four hundred milliliter aliquots of tank water and one sampler set were removed at the following time intervals: 1 hr, 2 hrs, 6 hrs, 12 hrs, 3 days, 12 days, and 32 days. The tank was open to the air in the fume hood for less than 4 minutes during each sampling period. After removal, each sampler set was wrapped in pre-cleaned aluminum foil and placed frozen in an airtight bag at −20° C. until extraction and analysis. Water-side 400 mL aliquots were frozen at −20° C. until extraction and analysis.
The POGs and OREs were extracted for analysis of PBDE concentration.
Extracts were analyzed for BDE congeners 17, 28, 47, 66, 71, 85, 99, 100, 138, 153, 154, 183, 190, and 209 by gas chromatography-mass spectrometry (GC/MS). Masses 79 (PBDEs) and 414 (Mirex) were used for quantification with Masses 81 (PBDEs), 487, 486 (DecaBDE), and 412 (Mirex) acting as confirmation ions. Extracts were identified and quantified by comparison with known concentrations of prepared standard solutions.
Sampling rates were calculated experimentally using Equation 2. The sampling rates varied between sampler types. The differences in sampling rates were likely due to variations in the thickness and heterogeneity versus homogeneity of the thin film coating on the respective plates. Sampling rates (RS(s)) were calculated at 1, 2, or 6 hrs depending upon the shape of the uptake curve.

Structure (SMILES) | LOG KEVA-W (EVA-water partition coefficient) ORE | LOG KEVA-W (EVA-water partition coefficient) POG
Brc1ccc(Oc2ccccc2Br)c(Br)c1 [BDE 17] | 6.40 ± 0.08 | 6.01 ± 0.07
Brc1ccc(Oc2ccc(Br)cc2Br)cc1 [BDE 28] | 6.38 ± 0.10 | 5.90 ± 0.06
Brc1ccc(Oc2ccc(Br)cc2Br)c(Br)c1 [BDE 47] | 6.79 ± 0.10 | 6.43 ± 0.07
Brc1ccc(Oc2ccc(Br)c(Br)c2)c(Br)c1 [BDE 66] | 6.66 ± 0.11 | 6.25 ± 0.07
Brc1ccc(Oc2c(Br)cccc2Br)cc1Br [BDE 71] | 6.67 ± 0.02 | 6.24 ± 0.05
